Laboratory results taken from patent EP4740948A1 (Dong Wha Pharm. Co., Ltd., priority 2023, dated 2025).

Key:
Type in all cases: cell-based
Lovo cells = assay: Cancer cell proliferation inhibition (Cell Counting Kit-8), colorectal cancer cell line; conditions: 1000 nM, cultured seven to 11 days; for inhibition at 1 µM: Homo sapiens, LoVo, 264 h, read-out: % inhibition rate LoVo
Method: (§1) In addition, as one example of solid cancer in which an overexpression of EZH2 and a consequent disease association therebetween is reported, a proliferation inhibitory activity of the 1,3-benzodioxole derivative compounds represented by chemical formula I of the present invention was evaluated in Lovo cells as a colorectal cancer cell line, SW-13 cells as an adrenal cancer cell line, MIA-PaCa-2 cells as a pancreatic cancer cell line, and NCI-H1299 cells as a lung cancer cell line.
(§2) Each cell line (G401 cell, MKN-45 cell, Lovo cell, SW-13 cell, MIA-PaCa-2, NCI-H1299) of Table 2 below was cultured using RPMI1640, McCoy's 5a, L-15 or DMEM containing 10% fetal bovine serum, and the cells were seeded into wells of a 96-well culture dish at 100 to 1,000 cells each, and a test substance 1000 nM was cultured for seven to 11 days after drug treatment. After the culture, the cells were measured according to a manufacturer's instructions using Cell Counting Kit-8, and a cell proliferation inhibitory effect (% inhibition rate) of the test substance was obtained.
(§3) The cell proliferation inhibitory effect (% inhibition rate) of the test substance was calculated using a following equation. % inhibition rate = {1−(testgroup/controlgroup)} X 100 [formula]

G401 cells = assay: Cancer cell proliferation inhibition (Cell Counting Kit-8), rhabdoid tumor cell line; conditions: 1000 nM, cultured seven to 11 days; for % inhibition rate G401: 1 µM; for inhibition at 1 µM: Homo sapiens, G-401, 264 h, read-out: % inhibition rate G401
From the text: (§4) Among solid cancer cells, in G401 cells in which expression of SMARCB1, which is a member of switch/sucrosenon-fermenting (SWI/SNF), is defective as a cell line of a rhabdoid tumor in which a therapeutic effect may be expected through dual inhibition of EZH1/2, and MKN-45 cells in which expression of ARID1A, which is a member of SWI/SNF, is defective as a gastric cancer cell line, a proliferation inhibitory ability of the 1,3-benzodioxole derivative compounds represented by chemical formula I of the present invention was evaluated.
as §2, §3

MKN-45 cells = assay: Cancer cell proliferation inhibition (Cell Counting Kit-8), gastric cancer cell line; conditions: 1000 nM, cultured seven to 11 days; for inhibition at 1 µM: Homo sapiens, MKN-45, 264 h, read-out: % inhibition rate MKN -45
From the text: as §4, §2, §3

SW-13 cells = assay: Cancer cell proliferation inhibition (Cell Counting Kit-8), adrenal cancer cell line; conditions: 1000 nM, cultured seven to 11 days; for inhibition at 1 µM: Homo sapiens, SW13, 264 h, read-out: % inhibition rate SW-13
Method: as §1, §2, §3

MIA-PaCa-2 cells = assay: Cancer cell proliferation inhibition (Cell Counting Kit-8), pancreatic cancer cell line; conditions: 1000 nM, cultured seven to 11 days; for inhibition at 1 µM: Homo sapiens, MIA PaCa-2, 264 h, read-out: % inhibition rate MIA-Paca2
Method: as §1, §2, §3

NCI-H1299 cells = assay: Cancer cell proliferation inhibition (Cell Counting Kit-8), lung cancer cell line; conditions: 1000 nM, cultured seven to 11 days; for inhibition at 1 µM: Homo sapiens, NCI-H1299, 264 h, read-out: % inhibition rate NCI-H129 9
Method: as §1, §2, §3

Compound | % inhibition rate LoVo (Lovo cells) | % inhibition rate G401 (G401 cells) | % inhibition rate MKN -45 (MKN-45 cells) | % inhibition rate SW-13 (SW-13 cells) | % inhibition rate MIA-Paca2 (MIA-PaCa-2 cells) | % inhibition rate NCI-H129 9 (NCI-H1299 cells; 1 µM) | % inhibition rate MKN -45 (MKN-45 cells; 1 µM) | % inhibition rate SW-13 (SW-13 cells; 1 µM) | % inhibition rate NCI-H129 9 (NCI-H1299 cells) | % inhibition rate LoVo (Lovo cells; 1 µM) | inhibition at 1 µM (Lovo cells) | inhibition at 1 µM (G401 cells) | inhibition at 1 µM (MKN-45 cells) | inhibition at 1 µM (SW-13 cells) | inhibition at 1 µM (MIA-PaCa-2 cells) | inhibition at 1 µM (NCI-H1299 cells)
CSc1cc(C)[nH]c(=O)c1CNC(=O)c1cc(-c2cnc(N3CCOCC3)nc2)c2c(c1C)OC(C)(C1CCN(CC(F)F)CC1)O2 (single isomer, unassigned) [Compound 72, 2-(1-(2,2-difluoroethyl)piperidin-4-yl)-2,4-dimethyl-N-((6-methyl-4-(methylthio)-2-oxo-1,2-dihydropyridin-3-yl)methyl)-7-(2-morpholinopyrimidin-5-yl)benzo[d][1,3]dioxole-5-carboxamide] | +++ (+++: ≥70%) | + (+: ≤30%) | ++ (++: more than 30% and less than 70%) | ++ (++: more than 30% and less than 70%) | + (+: ≤30%) | + (+: ≤30%) |  |  |  |  |  |  |  |  |  | 
CCN1CCC(C2(C)Oc3c(-c4cnc(N5CCOCC5)nc4)cc(C(=O)NCc4c(SC)cc(C)[nH]c4=O)c(C)c3O2)CC1 (single isomer, unassigned) [Compound 74, 2-(1-ethylpiperidin-4-yl)-2,4-dimethyl-N-((6-methyl-4-(methylthio)-2-oxo-1,2-dihydropyridin-3-yl)methyl)-7-(2-morpholinopyrimidin-5-yl)benzo[d][1,3]dioxole-5-carboxamide] | ++ (++: more than 30% and less than 70%) | + (+: ≤30%) |  |  | + (+: ≤30%) |  | + (+: ≤30%) | + (+: ≤30%) | + (+: ≤30%) |  |  |  |  |  |  | 
CCN1CCN(c2ncc(-c3cc(C(=O)NCc4c(SC)cc(C)[nH]c4=O)c(C)c4c3OC(C)(C3CCN(CC(F)(F)F)CC3)O4)cn2)CC1 (single isomer, unassigned) [Compound 77, 7-(2-(4-ethylpiperazin-1-yl)pyrimidin-5-yl)-2,4-dimethyl-N-((6-methyl-4-(methylthio)-2-oxo-1,2-dihydropyridin-3-yl)methyl)-2-(1-(2,2,2-trifluoroethyl)piperidin-4-yl)benzo[d][1,3]dioxole-5-carboxamide] |  | + (+: ≤30%) |  |  | + (+: ≤30%) |  | + (+: ≤30%) | + (+: ≤30%) | + (+: ≤30%) | ++ (++: more than 30% and less than 70%) |  |  |  |  |  | 
CCN(C)c1ccc(-c2cc(C(=O)NCc3c(SC)cc(C)[nH]c3=O)c(C)c3c2OC(C)(C2CCN(CC(F)(F)F)CC2)O3)cn1 (single isomer, unassigned) [Compound 80, 7-(2-(ethyl(methyl)amino)pyridin-5-yl)-2,4-dimethyl-N-((6-methyl-4-(methylthio)-2-oxo-1,2-dihydropyridin-3-yl)methyl)-2-(1-(2,2,2-trifluoroethyl)piperidin-4-yl)benzo[d][1,3]dioxole-5-carboxamide] | +++ (+++: ≥70%) | + (+: ≤30%) |  |  | + (+: ≤30%) | + (+: ≤30%) | ++ (++: more than 30% and less than 70%) | + (+: ≤30%) |  |  |  |  |  |  |  | 
CCN(C)c1ncc(-c2cc(C(=O)NCc3c(SC)cc(C)[nH]c3=O)c(C)c3c2OC(C)(C2CCN(CC(F)F)CC2)O3)cn1 (single isomer, unassigned) [Compound 82, 2-(1-(2,2-difluoroethyl)piperidin-4-yl)-7-(2-(ethyl(methyl)amino)pyrimidin-5-yl)-2,4-dimethyl-N-((6-methyl-4-(methylthio)-2-oxo-1,2-dihydropyridin-3-yl)methyl)benzo[d][1,3]dioxole-5-carboxamide] | +++ (+++: ≥70%) | ++ (++: more than 30% and less than 70%) |  |  | + (+: ≤30%) |  | + (+: ≤30%) | + (+: ≤30%) | + (+: ≤30%) |  |  |  |  |  |  | 
CCN1CCC(C2(C)Oc3c(-c4cnc(N(C)CC)nc4)cc(C(=O)NCc4c(SC)cc(C)[nH]c4=O)c(C)c3O2)CC1 (single isomer, unassigned) [Compound 84, 7-(2-(ethyl(methyl)amino)pyrimidin-5-yl)-2-(1-ethylpiperidin-4-yl)-2,4-dimethyl-N-((6-methyl-4-(methylthio)-2-oxo-1,2-dihydropyridin-3-yl)methyl)benzo[d][1,3]dioxole-5-carboxamide] |  | + (+: ≤30%) | + (+: ≤30%) |  | + (+: ≤30%) |  |  | + (+: ≤30%) | + (+: ≤30%) | + (+: ≤30%) |  |  |  |  |  | 
CCN(C)c1ccc(-c2cc(C(=O)NCc3c(SC)cc(C)[nH]c3=O)c(C)c3c2OC(C)(C2CCN(CC(F)(F)F)CC2)O3)cn1 (single isomer, unassigned) [Compound 87, 7-(6-(ethyl(methyl)amino)pyridin-3-yl)-2,4-dimethyl-N-((6-methyl-4-(methylthio)-2-oxo-1,2-dihydropyridin-3-yl)methyl)-2-(1-(2,2,2-trifluoroethyl)piperidin-4-yl)benzo[d][1,3]dioxole-5-carboxamide] | +++ (+++: ≥70%) | + (+: ≤30%) |  |  | + (+: ≤30%) | + (+: ≤30%) | + (+: ≤30%) | + (+: ≤30%) |  |  |  |  |  |  |  | 
CSc1cc(C)[nH]c(=O)c1CNC(=O)c1cc(-c2ccc(N3CC(C)CC(C)C3)nc2)c2c(c1C)OC(C)(C1CCN(CC(F)(F)F)CC1)O2 (stereo not drawn) [Compound 37, 7-(6-(3,5-dimethylpiperidin-1-yl)pyridin-3-yl)-2,4-dimethyl-N-((6-methyl-4-(methylthio)-2-oxo-1,2-dihydropyridin-3-yl)methyl)-2-(1-(2,2,2-trifluoroethyl)piperidin-4-yl)benzo[d][1,3]dioxole-5-carboxamide] |  |  |  |  |  |  |  |  |  |  | ≥ 70% | ≤ 30% | ≤ 30% | ≤ 30% | ≤ 30% | 30 to 70%
CSc1cc(C)[nH]c(=O)c1CNC(=O)c1cc(-c2ccc(N3C[C@@H](C)O[C@@H](C)C3)nc2)c2c(c1C)OC(C)([C@H]1CC[C@H](N3CC(CC(F)(F)F)C3)CC1)O2 (stereo partly drawn) [Compound 102, 7-(6-((2S,6R)-2,6-dimethylmorpholino)pyridin-3-yl)-2,4-dimethyl-N-((6-methyl-4-(methylthio)-2-oxo-1,2-dihydropyridin-3-yl)methyl)-2-(trans-4-(3-(2,2,2-trifluoroethyl)azetidin-1-yl)cyclohexyl)benzo[d][1,3]dioxole-5-carboxamide] |  |  |  |  |  |  |  |  |  |  | ≥ 70% | 30 to 70% | 30 to 70% | ≥ 70% | ≥ 70% | ≤ 30%
CSc1cc(C)[nH]c(=O)c1CNC(=O)c1cc(-c2ccc(N3C[C@@H](C)O[C@@H](C)C3)nc2)c2c(c1C)OC(C)([C@H]1CC[C@H](N3CC(OC(C)C)C3)CC1)O2 (stereo partly drawn) [Compound 105, 7-(6-((2S,6R)-2,6-dimethylmorpholino)pyridin-3-yl)-2-(trans-4-(3-isopropoxyazetidin-1-yl)cyclohexyl)-2,4-dimethyl-N-((6-methyl-4-(methylthio)-2-oxo-1,2-dihydropyridin-3-yl)methyl)benzo[d][1,3]dioxole-5-carboxamide] |  |  |  |  |  |  |  |  |  |  | ≥ 70% | 30 to 70% | ≥ 70% | ≥ 70% | ≥ 70% | ≥ 70%
